{"source": "patent US11000516B2", "about": "(priority 2015, dated 2021)", "key": {"[1]": {"test_system": "EDEN1 (clinical DENV1 isolate)", "assay": "Antiviral effect in Vero cells, plaque assay of supernatant 48 h pi", "assay_type": "cell-based", "method": "(§1) Cells were infected with DENV strains for 1 hour at 37° C. and washed once with culture media. […] The supernatants were subjected to standard plaque assay and the EC50 values were determined using the GraphPad Prism software.\n(§2) NITD008, an adenosine analog inhibitor of DENV polymerase (Yin et al., 2009) was used as a positive control."}, "[2]": {"test_system": "EDEN2 (clinical DENV2 isolate)", "assay": "Antiviral effect in Vero cells, plaque assay of supernatant 48 h pi", "assay_type": "cell-based", "settings": "Dengue virus, DENV2, Vero", "method": "as §1, §2"}, "[3]": {"test_system": "S221 (mouse-adapted DENV2 strain)", "assay": "Antiviral effect in Vero cells, plaque assay of supernatant 48 h pi", "assay_type": "cell-based", "settings": "S221, MOI 0.3", "method": "as §1, §2"}, "[4]": {"test_system": "EDEN1, EDEN2, S221", "assay": "Antiviral effect in BHK-21 cells, all virus strains", "assay_type": "cell-based, DENV", "settings": "Dengue virus", "method": "as §1, §2"}, "[5]": {"test_system": "DENV2 strain #013", "assay": "CELADEN clinical strain in HuH-7 cells, single concentration, virus titer by plaque assay", "assay_type": "cell-based", "settings": "strain #013, celgosivir 3 mM, 48 hours pi", "method": "(§3) EDEN1, EDEN2 and S221 were used as control virus strains. The MOI of each strain was indicated in supplementary FIG. 2. After 48 hours pi, virus titer in the supernatants was determined by standard plaque assay using BHK-21 cells. The percentages of virus titer were calculated based on virus infection control of each strain. Error bars indicate standard deviations from duplicate experiments. (B and C) Mice were inoculated i.v. with DENV2 strains, #031 (2×10^7 pfu), #013 (1×10^7 pfu) or #036 (2×10^7 pfu). […] Average viral copy numbers on day 1-2 were measured using mixed serum of each group. Viral copy number on day 3 was measured individually and the graphs show the average results with standard deviations. A P value less than 0.05 was considered significant (*P<0.05). […] Viral copy number on day 3-6 was measured individually and shown in the graphs as the average results with standard deviations. The VLR from day 3 to day 6 was also shown as the mean value and standard deviations. The number of mice per group is 6.\n(§4) Total 16 clinical DENV virus were recovered from serum of CELADEN trial patients with 8 of either DENV1 or DENV2 infection. […] The MOI was varied among strains to obtain similar levels of virus titer (within 10-fold difference). The MOI was 0.01 (EDEN1), 0.1 (#005, #048, #004, #033, #010, #013, #022, #036), 0.2 (#016, #017, #011, EDEN2, S221), 0.5 (#049, #038), 1 (#028, #031) and 2 (#025). After 48 hours post-infection, virus titer in the supernatants was determined by standard plaque assay using BHK-21 cells. Error bars indicate standard deviations from duplicate experiments.\n(§5) Since infection levels in HuH-7 cells are different among the strains, the MOI of each strain was varied to obtain similar levels of virus titer in the supernatant (FIG. 8)."}, "[6]": {"test_system": "DENV2 strain #031", "assay": "CELADEN clinical strain in HuH-7 cells, single concentration, virus titer by plaque assay", "assay_type": "cell-based", "settings": "strain #031, celgosivir 3 mM, 48 hours pi", "method": "as §3, §4, §5"}, "[7]": {"test_system": "DENV2 strain #036", "assay": "CELADEN clinical strain in HuH-7 cells, single concentration, virus titer by plaque assay", "assay_type": "cell-based", "settings": "strain #036, celgosivir 3 mM, 48 hours pi", "method": "as §3, §4, §5"}, "[8]": {"test_system": "EDEN1", "assay": "Non-lethal viremia mouse model", "assay_type": "in vivo, mice", "method": "(§6) Mice were inoculated i.v. with EDEN1 (7×10^7 pfu) or EDEN2 (1×10^8 pfu). […] Average viral copy numbers on day 1 and 2 were measured using mixed serum of each group. […] A P value less than 0.05 was considered significant (*P<0.05). The number of mice per group is 6. […] Average viral copy numbers on days 4 and 5 were measured using mixed serum of each group. […] The virological log reduction (VLR) from day 3 to day 6 was also shown as the mean value and standard deviations. The number of mice per group is 6.\n(§7) Since dengue fever patients in general present at a clinic when viremia is at a peak level (Low et al., 2014; Nguyen et al., 2013; Tricou et al., 2010), we next compared the 2 different dosing regimens; one started at the time of infection and another started at the time of peak viremia (on day 3 pi) similar to human situation (FIG. 4A). In this experiment, we used a non-lethal viremia mouse model, which permits the tracking of viremia kinetics for a longer period of time (FIG. 1B)."}, "[9]": {"test_system": "EDEN2", "assay": "Non-lethal viremia mouse model", "assay_type": "in vivo, mice", "method": "as §6, §7"}, "[10]": {"test_system": "DENV2 strain #013", "assay": "Non-lethal mouse model with CELADEN strain", "assay_type": "in vivo, mice", "method": "as §3, §5"}, "[11]": {"test_system": "DENV2 strain #031", "assay": "Non-lethal mouse model with CELADEN strain", "assay_type": "in vivo, mice", "method": "as §3, §5"}, "[12]": {"test_system": "DENV2 strain #036", "assay": "Non-lethal mouse model with CELADEN strain", "assay_type": "in vivo, mice", "method": "as §3, §5"}}}
{"smiles": "CCCC(=O)O[C@H]1CN2CC[C@H](O)[C@@H]2[C@@H](O)[C@@H]1O", "note": "[celgosivir]", "values": [{"measurement": "EC50", "setting": "[1]; EDEN1, MOI 0.01", "result": 13.8, "unit": "µM"}, {"measurement": "EC50", "setting": "[1]; EDEN1, MOI 0.3", "result": 51, "unit": "µM"}, {"measurement": "EC50", "setting": "[2]; EDEN2, MOI 0.3", "result": 2.43, "unit": "µM"}, {"measurement": "EC50", "setting": "[2]; EDEN2, MOI 0.3 (text)", "result": 2.4, "unit": "µM"}, {"measurement": "EC50", "setting": "[3]; Dengue virus, DENV2, Vero", "result": 8.3, "unit": "µM"}, {"measurement": "EC50", "setting": "[3]", "result": 8.34, "unit": "µM"}, {"measurement": "EC50", "setting": "[4]", "result": "< 0.2", "unit": "µM"}, {"measurement": "reduction in virus titer in the supernatant of HuH-7 cells", "setting": "[5]", "result": 67, "unit": "%"}, {"measurement": "reduction in virus titer in the supernatant of HuH-7 cells", "setting": "[6]", "result": 52, "unit": "%"}, {"measurement": "reduction in virus titer in the supernatant of HuH-7 cells", "setting": "[7]", "result": 70, "unit": "%"}, {"measurement": "log reduction of viremia (VLR) from day 3 to day 6", "setting": "[8]; EDEN1, celgosivir 50 mg/kg BID started at peak viremia (day 3)", "result": 0.85}, {"measurement": "viremia reduction on day 3 pi", "setting": "[8]; EDEN1, non-lethal model, celgosivir 50 mg/kg BID from time of infection", "result": 2.9, "unit": "fold"}, {"measurement": "log reduction of viremia (VLR) from day 3 to day 6", "setting": "[9]; EDEN2, celgosivir 50 mg/kg BID started at peak viremia (day 3)", "result": 2.62}, {"measurement": "viremia reduction on day 3 pi", "setting": "[9]; EDEN2, non-lethal model, celgosivir 50 mg/kg BID from time of infection", "result": 9.0, "unit": "fold"}, {"measurement": "viremia reduction on day 3 pi", "setting": "[10]; #013, 50 mg/kg BID from time of infection", "result": 6.8, "unit": "fold"}, {"measurement": "VLR from day 3 to day 6", "setting": "[10]; #013, 50 mg/kg BID started during peak viremia (day 3)", "result": 2.32}, {"measurement": "viremia reduction on day 3 pi", "setting": "[11]; #031, 50 mg/kg BID from time of infection", "result": 7.8, "unit": "fold"}, {"measurement": "VLR from day 3 to day 6", "setting": "[11]; #031, 50 mg/kg BID started during peak viremia (day 3)", "result": 2.63}, {"measurement": "viremia reduction on day 3 pi", "setting": "[12]; #036, 50 mg/kg BID from time of infection", "result": 12.5, "unit": "fold"}, {"measurement": "VLR from day 3 to day 6", "setting": "[12]; #036, 50 mg/kg BID started during peak viremia (day 3)", "result": 2.14}]}
